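Briefly, cells in 96-well plates were exposed to five compound concentrations for 48 h, and endpoints were estimated by linear interpolation. GI50: concentration for 50% inhibition of growth.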 Active and inactive are the calls of the source. Rule as the data show it: active = GI50 up to about 1.1 µM and inactive = higher.
Legend:
Assay in all cases: NCI anticancer screen, dose series, 48 h
[1] = system: 786-0
[2] = system: SW-620
[3] = system: OVCAR-5
[4] = system: A498
[5] = system: RPMI-8226
[6] = system: UACC-257
[7] = system: NCI-H226
[8] = system: SK-MEL-28
[9] = system: SN12C
[10] = system: SK-OV-3
[11] = system: KM12
[12] = system: UO-31
[13] = system: SF-295
[14] = system: SR
[15] = system: HOP-62
[16] = system: NCI-H460
[17] = system: M14

Measured: GI50

CCC(Oc1ccc(OC)c2ccccc(=O)c12)C(=O)O (configuration not stated)
inactive: [1] > 100 µM | [2] > 100 µM | [3] > 100 µM | [4] > 100 µM | [5] > 100 µM | [6] > 100 µM | [7] > 100 µM | [8] > 100 µM | [9] > 100 µM | [10] > 100 µM | [11] > 100 µM | [12] > 100 µM | [13] > 100 µM | [14] > 100 µM | [15] > 100 µM | [16] > 100 µM | [17] > 100 µM

CC(O)CN1C(=O)NC(Cc2ccccc2)C1=O (configuration not stated)
inactive: [1] > 100 µM | [2] > 100 µM | [3] > 100 µM | [6] > 100 µM | [7] > 100 µM | [8] > 100 µM | [9] > 100 µM | [11] > 100 µM | [12] > 100 µM | [13] > 100 µM | [14] > 100 µM | [15] 29.5 µM | [16] > 100 µM | [17] > 100 µM

CC(=O)Nc1cc(N(CCOS(C)(=O)=O)CCOS(C)(=O)=O)ccc1N=O
inactive: [1] > 100 µM | [2] > 100 µM | [3] > 100 µM | [5] > 100 µM | [6] > 100 µM | [7] > 100 µM | [8] > 100 µM | [11] > 100 µM | [12] > 100 µM | [13] > 100 µM | [14] > 100 µM | [15] > 100 µM | [16] > 100 µM | [17] > 100 µM

O=C1Nc2ccccc2C1(O)C/C(=N/O)c1ccc2ccccc2c1 (configuration not stated)
inactive: [1] > 100 µM | [2] > 100 µM | [3] > 100 µM | [4] > 100 µM | [5] 87.1 µM | [6] > 100 µM | [7] > 100 µM | [8] > 100 µM | [9] > 100 µM | [10] 49.1 µM | [11] > 100 µM | [12] 75.9 µM | [13] > 100 µM | [15] > 100 µM | [16] > 100 µM | [17] > 100 µM

Cc1cc2c(c(C(N)=O)c1C)-c1ccccc1C2=O
inactive: [1] > 100 µM | [2] > 100 µM | [3] > 100 µM | [4] 51.4 µM | [5] > 100 µM | [6] > 100 µM | [8] > 100 µM | [9] > 100 µM | [10] > 100 µM | [11] 2.42 µM | [12] > 100 µM | [13] > 100 µM | [15] > 100 µM | [16] > 100 µM | [17] > 100 µM

COc1cccc(SSc2cccc(OC)c2C(=O)O)c1C(=O)O
inactive: [1] > 100 µM | [2] > 100 µM | [3] > 100 µM | [4] > 100 µM | [5] > 100 µM | [6] > 100 µM | [7] > 100 µM | [8] > 100 µM | [9] > 100 µM | [10] > 100 µM | [11] > 100 µM | [12] > 100 µM | [13] > 100 µM | [14] > 100 µM | [15] > 100 µM | [16] > 100 µM | [17] > 100 µM

CCOC(=O)C(C)(NC(=O)c1ccc(NCc2ccc3nc(NC(=O)c4ccccc4)nc(NC(=O)c4ccccc4)c3c2)cc1)C(=O)OCC
inactive: [1] 3.19 µM | [2] 11.7 µM | [3] > 100 µM | [4] 9.35 µM | [5] 18.3 µM | [6] 13.5 µM | [7] 10.1 µM | [8] 8.18 µM | [9] 11.4 µM | [10] 12.5 µM | [12] 18.1 µM | [13] 6.79 µM | [14] 34.9 µM | [15] 16.6 µM | [16] 14.5 µM | [17] 13 µM

COc1ccc(/C=C2/C(=O)N(C(=O)c3ccc(Cl)cc3)N=C2C)cc1OC
inactive: [1] > 100 µM | [2] > 100 µM | [3] > 100 µM | [4] > 100 µM | [5] > 100 µM | [6] > 100 µM | [8] > 100 µM | [9] > 100 µM | [10] > 100 µM | [11] > 100 µM | [12] > 100 µM | [13] > 100 µM | [15] > 100 µM | [16] > 100 µM | [17] > 100 µM

CC(=O)NNc1nc(C)c(C(=O)NNC(=O)C(=O)Nc2c([N+](=O)[O-])ccc(C)c2C)s1
inactive: [1] > 100 µM | [2] 76.9 µM | [3] > 100 µM | [4] 31.6 µM | [5] > 100 µM | [6] > 100 µM | [7] > 100 µM | [8] > 100 µM | [9] > 100 µM | [11] > 100 µM | [12] > 100 µM | [13] > 100 µM | [14] 92.3 µM | [15] > 100 µM | [16] > 100 µM | [17] > 100 µM

O=C(CC(=O)n1nc(-c2ccccc2)c(/N=N/c2ccc(Cl)cc2)c1-c1ccccc1)Nc1cccc(Cl)c1
inactive: [1] 59.6 µM | [2] > 100 µM | [3] 96.4 µM | [4] 34.3 µM | [5] 65.6 µM | [6] > 100 µM | [7] 28.3 µM | [8] > 100 µM | [9] 60.5 µM | [11] > 100 µM | [12] 30.5 µM | [14] 37.8 µM | [15] 38 µM | [16] 34.1 µM | [17] 70.1 µM

COc1ccccc1/C=N/N=C(\N)NO
inactive: [1] 23 µM | [2] 21.3 µM | [3] 4.58 µM | [4] 33.5 µM | [5] 29.2 µM | [6] 29.1 µM | [7] 28.4 µM | [8] 21.3 µM | [9] 30.2 µM | [10] 71.9 µM | [11] 12.7 µM | [12] 7.18 µM | [13] 3.09 µM | [14] 31.8 µM | [15] 6 µM | [16] 4.14 µM

COc1cc(C2C(C(=O)O)=C(C)Oc3cc4c(cc32)OCO4)cc(OC)c1OC (configuration not stated)
inactive: [1] 37.2 µM | [2] 33.7 µM | [5] > 10 µM | [6] 39.6 µM | [8] 26.4 µM | [9] 38.2 µM | [10] 39.9 µM | [12] 15.3 µM | [13] 17.3 µM | [16] 37.7 µM | [17] 59 µM

COc1ccc(S(=O)(=O)N(C)CC(=O)O)cc1
inactive: [1] > 100 µM | [2] > 100 µM | [3] > 100 µM | [4] > 100 µM | [5] > 100 µM | [6] > 100 µM | [7] > 100 µM | [8] > 100 µM | [9] > 100 µM | [10] > 100 µM | [11] > 100 µM | [12] > 100 µM | [13] > 100 µM | [16] > 100 µM | [17] > 100 µM

CN(c1ccccc1)C(c1ccccc1)C(O)c1ccccc1 (configuration not stated)
inactive: [1] 18.2 µM | [2] 18.4 µM | [3] 19.5 µM | [4] 22 µM | [5] 20.8 µM | [6] 19.3 µM | [8] 20.5 µM | [9] 17.1 µM | [10] 22.6 µM | [11] 17.9 µM | [12] 21.3 µM | [13] 15.8 µM | [14] 20.6 µM | [15] 20.4 µM | [16] 20.1 µM | [17] 16.6 µM

COc1ccccc1N1C(=O)/C(=C/c2ccc(N(CCC#N)CCC#N)cc2C)N=C1c1cc([N+](=O)[O-])ccc1Cl
inactive: [1] > 100 µM | [3] > 100 µM | [4] > 100 µM | [5] > 100 µM | [6] > 100 µM | [7] > 100 µM | [8] > 100 µM | [9] > 100 µM | [10] > 100 µM | [11] > 100 µM | [12] > 100 µM | [13] > 100 µM | [14] > 100 µM | [15] > 100 µM | [16] > 100 µM | [17] 68.2 µM

Cc1ccc(S(=O)(=O)OC2CC=CC2)cc1
inactive: [1] > 100 µM | [2] > 100 µM | [3] > 100 µM | [5] > 100 µM | [6] > 100 µM | [7] > 100 µM | [8] > 100 µM | [9] > 100 µM | [10] > 100 µM | [11] > 100 µM | [12] > 100 µM | [13] > 100 µM | [15] > 100 µM | [16] > 100 µM | [17] > 100 µM

CCN(CC)CCN1C(=O)CC2[C@@H]3CCc4cc(OC)ccc4C3CC[C@]2(C)C1=O (some centres not stated)
inactive: [1] 17.3 µM | [3] 32.5 µM | [4] 36 µM | [5] 21.7 µM | [6] 14.9 µM | [8] 17.9 µM | [10] > 100 µM | [11] 33.5 µM | [12] 17.4 µM | [13] 18.4 µM | [14] > 10 µM | [15] 25.2 µM | [16] 37.6 µM | [17] 17.7 µM

CCc1cc(CCC(=O)Nc2ccccc2[N+](=O)[O-])nc(S)n1
inactive: [1] > 100 µM | [2] > 100 µM | [3] > 100 µM | [6] > 100 µM | [7] > 100 µM | [8] > 100 µM | [10] > 100 µM | [11] > 100 µM | [12] > 100 µM | [13] > 100 µM | [14] > 100 µM | [15] > 100 µM | [16] > 100 µM | [17] > 100 µM
